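1) Cells in 96-well plates. 2) Compound, 48 h, 5 concentrations. 3) Linear interpolation between surrounding doses. 4) Unreached endpoint = highest concentration. The concentration for full growth arrest is given as TGI.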

What all share (experiment): growth of human tumour cells (NCI), 48 h
Assay [1] relates to M14 melanoma.
Assay [2] has as its system NCI-H522 lung.
The test system of assay [3] is SF-268 CNS.
The subject of assay [4] is OVCAR-5 ovarian.
Assay [5] concerns SK-MEL-28 melanoma.
The subject of assay [6] is K-562 leukemia.
Assay [7] concerns UO-31 renal.
Assay [8] concerns OVCAR-4 ovarian.
Assay [9] relates to SN12C renal.
Assay [10] concerns HT29 colon.
Assay [11] has as its system U251 CNS.
Assay [12] has as its system OVCAR-3 ovarian.
In assay [13] the test system is SNB-19 CNS.
Assay [14] relates to HOP-92 NSCLC.
Assay [15] deals with SF-295 CNS.
The test system of assay [16] is SR leukemia.
Assay [17] deals with UACC-62 melanoma.
Assay [18] concerns RXF 393 renal.
Assay [19] concerns SK-MEL-2 melanoma.
For assay [20], the system named is KM20L2 colon.

For `CCOC(=O)C1=NN(c2ccc(Cl)cc2)C2=CC(C)=NN(C)C(=S)N21`, the TGI in [1] is over 100 µM; in [2], 46.9 µM; in assay [3], over 100 µM; in [4], over 100 µM; in assay [5], over 100 µM; in assay [6] it was over 100 µM. The TGI is over 100 µM in assay [7]; over 100 µM in [8]; over 100 µM in assay [9]; over 100 µM in assay [10]; 59.2 µM in [11]; over 100 µM in assay [12]. Also, the TGI is over 100 µM in assay [13]; over 100 µM in [14]; over 100 µM in assay [15]; over 100 µM in assay [16]; over 100 µM in [17]; 47.3 µM in [18].
As to `COc1ccc(/C=N/n2cnc3c(c2=O)S/C(=C2/SC(=S)N(c4ccc(C)cc4)C2=O)N3c2ccccc2)cc1`, the TGI is over 100 µM in assay [1]; over 100 µM in assay [2]; 99.5 µM in assay [3]; over 100 µM in assay [4]; over 100 µM in assay [5]; over 100 µM in assay [19]. Moreover, the TGI in [6] was over 10 µM; in [7], over 100 µM; in assay [8], 94.1 µM; in [9], over 100 µM; in [10] it was over 100 µM; in assay [12] it was 74.2 µM. Moreover, the TGI is over 100 µM in [20]; 83.5 µM in assay [13]; over 100 µM in assay [14]; 38.1 µM in [15]; over 100 µM in assay [16]; 51.9 µM in [17]. Besides, in assay [18], the TGI worked out at 35.8 µM.
For `COc1ccc(/C(Cl)=C(\C=O)c2ccccc2)cc1OC`, the TGI was over 100 µM in assay [1]; 30.8 µM in [2]; over 100 µM in [3]; over 100 µM in [4]; over 100 µM in assay [19]; over 100 µM in assay [6]. The TGI in [7], in assay [8], in assay [9], in [10], in [11] and in [12] was over 100 µM in each case. The TGI was over 100 µM in [20]; over 100 µM in assay [13]; 55.1 µM in assay [15]; over 100 µM in [16]; over 100 µM in assay [17]; 69 µM in [18].

(Values after PubChem BioAssay (NCI).)
